Measurements reported in ChEMBL document CHEMBL1201862, “PubChem BioAssay data set” (2004).
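48-hour exposure; five concentrations; linearly interpolated endpoints. GI50 is the concentration that inhibits growth by half.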 Active and inactive are the calls of the source. Rule as the data show it: active = GI50 up to about 1.1 µM and inactive = higher.

How the values were obtained:
Test in all cases: NCI tumour cell line growth inhibition, 48 h
[1] = tested on: HCT-15
[2] = tested on: MOLT-4
[3] = tested on: HCT-116
[4] = tested on: NCI-H226
[5] = tested on: SK-MEL-5
[6] = tested on: DLD-1
[7] = tested on: SF-295
[8] = tested on: IGROV-1
[9] = tested on: UACC-62
[10] = tested on: HOP-62
[11] = tested on: OVCAR-8
[12] = tested on: U-251
[13] = tested on: SNB-78
[14] = tested on: HL-60
[15] = tested on: SW-620
[16] = tested on: RPMI-8226
[17] = tested on: OVCAR-3
[18] = tested on: SNB-19
[19] = tested on: OVCAR-5
[20] = tested on: M19-MEL

| SMILES | GI50 [1] [µM] | GI50 [2] | GI50 [3] | GI50 [4] | GI50 [5] | GI50 [6] | GI50 [7] | GI50 [8] | GI50 [9] | GI50 [10] | GI50 [11] | GI50 [12] | GI50 [13] | GI50 [14] | GI50 [15] | GI50 [16] | GI50 [17] | GI50 [18] | GI50 [19] | GI50 [20] |
| --- | --- | --- | --- | --- | --- | --- | --- | --- | --- | --- | --- | --- | --- | --- | --- | --- | --- | --- | --- | --- |
| CCC1OC(=O)C(C)C(OC2CC(C)(O)C(O)C(C)O2)C(C)C(O)C(C)(O)CC(C)C(=O)C(C)C(O)C1C (stereo not given) | > 300 | > 300 µM (inactive) | > 300 µM (inactive) | > 300 µM (inactive) | > 300 µM (inactive) | > 300 µM (inactive) | > 300 µM (inactive) | > 300 µM (inactive) | > 300 µM (inactive) | 299 µM (inactive) | > 300 µM (inactive) | > 300 µM (inactive) | 204 µM (inactive) | > 300 µM (inactive) | > 300 µM (inactive) | > 300 µM (inactive) | > 300 µM (inactive) | > 300 µM (inactive) | > 292 µM (inactive) | > 300 µM (inactive) |
| CSc1sc(=S)sc1SC | > 100 | > 100 µM (inactive) | > 100 µM (inactive) | > 100 µM (inactive) | > 100 µM (inactive) | > 100 µM (inactive) | > 100 µM (inactive) | > 100 µM (inactive) | > 100 µM (inactive) | > 100 µM (inactive) | > 100 µM (inactive) | > 100 µM (inactive) | > 100 µM (inactive) | > 31.6 µM (inactive) | > 100 µM (inactive) | > 100 µM (inactive) | > 100 µM (inactive) | > 100 µM (inactive) | > 100 µM (inactive) | > 100 µM (inactive) |
| C=C1C(=O)OC2CC(C)C3C4OC4C(O)C3(C)C(O)C12 (stereo not given) | 22.8 | 11.9 µM (inactive) | 15.6 µM (inactive) | 30 µM (inactive) | 38.5 µM (inactive) | 27.3 µM (inactive) | 41 µM (inactive) | 18.6 µM (inactive) | 12.6 µM (inactive) | 68.9 µM (inactive) | 28.4 µM (inactive) | 43.2 µM (inactive) | 13.5 µM (inactive) | 13.8 µM (inactive) | 16.5 µM (inactive) | 13.7 µM (inactive) | 25.9 µM (inactive) | 44.7 µM (inactive) | 64 µM (inactive) | 21.1 µM (inactive) |
| CCC/C=C/C=C\C(=O)O[C@@H]1[C@@H](C)[C@]2(O)[C@@H]3C=C(C)C(=O)[C@H]3CC(COC(C)=O)=C[C@H]2[C@@H]2C(C)(C)[C@]12OC(C)=O | 28.6 | 10.2 µM (inactive) | 20.4 µM (inactive) | 46.6 µM (inactive) | 16.4 µM (inactive) | 16.7 µM (inactive) | 6.64 µM (inactive) | 48.4 µM (inactive) | 35.2 µM (inactive) | 1.89 µM (inactive) | 40.7 µM (inactive) | 17.6 µM (inactive) | 44.9 µM (inactive) | 2.33 µM (inactive) | 11.2 µM (inactive) | 22.9 µM (inactive) | 46.7 µM (inactive) | 54.1 µM (inactive) | 66.5 µM (inactive) | 32.2 µM (inactive) |
